Test results taken from ChEMBL document CHEMBL1147434, “Synthesis and biological results of the technetium-99m-labeled 4-nitroimidazole for imaging tumor hypoxia” (Bioorg Med Chem Lett, 2004).

What was measured:
Assay type in all cases: ADME, organism-based
[1] = tested on: Mus musculus; test: In vivo biodistribution of radiolabeled [99mTc]N4IPA in mice tumor/blood bearing S180 tumor cell line for 30 minutes; settings: ccrf s-180, 0.5 h
[2] = tested on: Mus musculus; test: In vivo biodistribution of radiolabeled [99mTc]-N4IPA in mice tumor/lung bearing S180 tumor cell line for 1 hour; settings: ccrf s-180, 1 h
[3] = tested on: Mus musculus; test: In vivo biodistribution of radiolabeled [99mTc]N4IPA in mice tumor/liver bearing S180 tumor cell line for 2 hours; settings: ccrf s-180, 2 h
[4] = tested on: Mus musculus; test: In vivo biodistribution of radiolabeled [99mTc]-N4IPA in mice brain bearing S180 tumor cell line for 1 hour; settings: ccrf s-180, 1 h
[5] = tested on: Mus musculus; test: In vivo biodistribution of radiolabeled [99mTc]N4IPA in mice brain bearing S180 tumor cell line for 2 hours; settings: ccrf s-180, 2 h
[6] = tested on: Mus musculus; test: In vivo biodistribution of radiolabeled [99mTc]-N4IPA in mice tumor/liver bearing S180 tumor cell line for 8 hours; settings: ccrf s-180, 8 h
[7] = tested on: Mus musculus; test: In vivo biodistribution of radiolabeled [99mTc]-N4IPA in mice tumor/liver bearing S180 tumor cell line for 4 hours; settings: ccrf s-180, 4 h
[8] = tested on: Mus musculus; test: In vivo biodistribution of radiolabeled [99mTc]N4IPA in mice liver bearing S180 tumor cell line for 1 hour; settings: ccrf s-180, 1 h
[9] = tested on: Mus musculus; test: In vivo biodistribution of radiolabeled [99mTc]N4IPA in mice liver bearing S180 tumor cell line for 8 hours; settings: ccrf s-180, 8 h
[10] = tested on: Mus musculus; test: In vivo biodistribution of radiolabeled [99mTc]-N4IPA in mice spleen bearing S180 tumor cell line for 30 minutes; settings: ccrf s-180, 0.5 h
[11] = tested on: Mus musculus; test: In vivo biodistribution of radiolabeled [99mTc]-N4IPA in mice tumor/lung bearing S180 tumor cell line for 30 minutes; settings: ccrf s-180, 0.5 h
[12] = tested on: Mus musculus; test: In vivo biodistribution of radiolabeled [99mTc]-N4IPA in mice tumor/heart bearing S180 tumor cell line for 30 minutes; settings: ccrf s-180, 0.5 h
[13] = tested on: Mus musculus; test: In vivo biodistribution of radiolabeled [99mTc]N4IPA in mice tumor bearing S180 tumor cell line for 8 hours; settings: ccrf s-180, 8 h
[14] = tested on: Mus musculus; test: In vivo biodistribution of radiolabeled [99mTc]-N4IPA in mice muscle bearing S180 tumor cell line for 30 minutes; settings: ccrf s-180, 0.5 h
[15] = tested on: Mus musculus; test: In vivo biodistribution of radiolabeled [99mTc]-N4IPA in mice blood bearing S180 tumor cell line for 1 hour; settings: ccrf s-180, 1 h
[16] = tested on: Mus musculus; test: In vivo biodistribution of radiolabeled [99mTc]-N4IPA in mice blood bearing S180 tumor cell line for 4 hours; settings: ccrf s-180, 4 h
[17] = tested on: Mus musculus; test: In vivo biodistribution of radiolabeled [99mTc]-N4IPA in mice tumor/heart bearing S180 tumor cell line for 8 hours; settings: ccrf s-180, 8 h
[18] = tested on: Mus musculus; test: In vivo biodistribution of radiolabeled [99mTc]-N4IPA in mice lung bearing S180 tumor cell line for 1 hour; settings: ccrf s-180, 1 h
[19] = tested on: Mus musculus; test: In vivo biodistribution of radiolabeled [99mTc]N4IPA in mice muscle bearing S180 tumor cell line for 2 hours; settings: ccrf s-180, 2 h
[20] = tested on: Mus musculus; test: In vivo biodistribution of radiolabeled [99mTc]-N4IPA in mice heart bearing S180 tumor cell line for 1 hour; settings: ccrf s-180, 1 h
[21] = tested on: Mus musculus; test: In vivo biodistribution of radiolabeled [99mTc]N4IPA in mice lung bearing S180 tumor cell line for 30 minutes; settings: ccrf s-180, 0.5 h
[22] = tested on: Mus musculus; test: In vivo biodistribution of radiolabeled [99mTc]-N4IPA in mice lung bearing S180 tumor cell line for 4 hours; settings: ccrf s-180, 4 h
[23] = tested on: Mus musculus; test: In vivo biodistribution of radiolabeled [99mTc]-N4IPA in mice liver bearing S180 tumor cell line for 4 hours; settings: ccrf s-180, 4 h
[24] = tested on: Mus musculus; test: In vivo biodistribution of radiolabeled [99mTc]N4IPA in mice brain bearing S180 tumor cell line for 30 minutes; settings: ccrf s-180, 0.5 h
[25] = tested on: Mus musculus; test: In vivo biodistribution of radiolabeled [99mTc]-N4IPA in mice tumor bearing S180 tumor cell line for 4 hours; settings: ccrf s-180, 4 h
[26] = tested on: Mus musculus; test: In vivo biodistribution of radiolabeled [99mTc]N4IPA in mice tumor/muscle bearing S180 tumor cell line for 8 hours; settings: ccrf s-180, 8 h
[27] = tested on: Mus musculus; test: In vivo biodistribution of radiolabeled [99mTc]-N4IPA in mice liver bearing S180 tumor cell line for 30 minutes; settings: ccrf s-180, 0.5 h
[28] = tested on: Mus musculus; test: In vivo biodistribution of radiolabeled [99mTc]-N4IPA in mice tumor bearing S180 tumor cell line for 1 hour; settings: ccrf s-180, 1 h
[29] = tested on: Mus musculus; test: In vivo biodistribution of radiolabeled [99mTc]N4IPA in mice liver bearing S180 tumor cell line for 2 hours; settings: ccrf s-180, 2 h
[30] = tested on: Mus musculus; test: In vivo biodistribution of radiolabeled [99mTc]N4IPA in mice tumor/heart bearing S180 tumor cell line for 2 hours; settings: ccrf s-180, 2 h
[31] = tested on: Mus musculus; test: In vivo biodistribution of radiolabeled [99mTc]N4IPA in mice tumor/blood bearing S180 tumor cell line for 1 hour; settings: ccrf s-180, 1 h
[32] = tested on: Mus musculus; test: In vivo biodistribution of radiolabeled [99mTc]-N4IPA in mice blood bearing S180 tumor cell line for 30 minutes; settings: ccrf s-180, 0.5 h
[33] = tested on: Mus musculus; test: In vivo biodistribution of radiolabeled [99mTc]N4IPA in mice heart bearing S180 tumor cell line for 8 hours; settings: ccrf s-180, 8 h
[34] = tested on: Mus musculus; test: In vivo biodistribution of radiolabeled [99mTc]-N4IPA in mice blood bearing S180 tumor cell line for 2 hours; settings: ccrf s-180, 2 h
[35] = tested on: Mus musculus; test: In vivo biodistribution of radiolabeled [99mTc]N4IPA in mice tumor/lung bearing S180 tumor cell line for 2 hours; settings: ccrf s-180, 2 h

Biodistribution [1]: 0.78 % g-1 | Biodistribution [2]: 2.06 % g-1 | Biodistribution [3]: 0.85 % g-1 | Biodistribution [4]: 0.04 % g-1 | Biodistribution [5]: 0.04 % g-1 | Biodistribution [6]: 1.41 % g-1 | Biodistribution [7]: 0.88 % g-1 | Biodistribution [8]: 0.79 % g-1 | Biodistribution [9]: 0.23 % g-1 | Biodistribution [10]: 0.13 % g-1 | Biodistribution [11]: 1.42 % g-1 | Biodistribution [12]: 2.31 % g-1 | Biodistribution [13]: 0.32 % g-1 | Biodistribution [14]: 0.15 % g-1 | Biodistribution [15]: 0.28 % g-1 | Biodistribution [16]: 0.18 % g-1 | Biodistribution [17]: 5.39 % g-1 | Biodistribution [18]: 0.22 % g-1 | Biodistribution [19]: 0.05 % g-1 | Biodistribution [20]: 0.14 % g-1 | Biodistribution [21]: 0.39 % g-1 | Biodistribution [22]: 0.12 % g-1 | Biodistribution [23]: 0.39 % g-1 | Biodistribution [24]: 0.04 % g-1 | Biodistribution [25]: 0.34 % g-1 | Biodistribution [26]: 8.83 % g-1 | Biodistribution [27]: 0.98 % g-1 | Biodistribution [28]: 0.45 % g-1 | Biodistribution [29]: 0.46 % g-1 | Biodistribution [30]: 3.39 % g-1 | Biodistribution [31]: 1.19 % g-1 | Biodistribution [32]: 0.7 % g-1 | Biodistribution [33]: 0.06 % g-1 | Biodistribution [34]: 0.22 % g-1 | Biodistribution [35]: 2.24 % g-1
SMILES: N/C(CCn1cnc([N+](=O)[O-])c1)=N\O
